Experimental data from PubChem BioAssay (NCI).
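Assay format: 96-well plates, 48-hour exposure. GI50 marks 50% less growth. At the TGI there is no net growth.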

Tests used:
Assay in all cases: NCI tumour cell line growth inhibition, 48 h
COLO 205 colon = tested on: COLO 205 colon
RXF 393 renal = tested on: RXF 393 renal
CCRF-CEM leukemia = tested on: CCRF-CEM leukemia
NCI-H460 lung = tested on: NCI-H460 lung
SN12C renal = tested on: SN12C renal
OVCAR-3 ovarian = tested on: OVCAR-3 ovarian
KM12 colon = tested on: KM12 colon
HL-60(TB) leukemia = tested on: HL-60(TB) leukemia
T-47D breast = tested on: T-47D breast
MDA-MB-231 breast = tested on: MDA-MB-231 breast

| SMILES | TGI (COLO 205 colon) | TGI (RXF 393 renal) | TGI (CCRF-CEM leukemia) | TGI (NCI-H460 lung) | TGI (SN12C renal) | TGI (OVCAR-3 ovarian) | TGI (KM12 colon) | TGI (HL-60(TB) leukemia) | GI50 (COLO 205 colon) | GI50 (RXF 393 renal) | GI50 (CCRF-CEM leukemia) | GI50 (T-47D breast) | TGI (T-47D breast) | GI50 (NCI-H460 lung) | GI50 (SN12C renal) | GI50 (OVCAR-3 ovarian) | GI50 (KM12 colon) | GI50 (HL-60(TB) leukemia) | GI50 (MDA-MB-231 breast) | TGI (MDA-MB-231 breast) |
| --- | --- | --- | --- | --- | --- | --- | --- | --- | --- | --- | --- | --- | --- | --- | --- | --- | --- | --- | --- | --- |
| CC(C)(C)C(=O)ON1N=NC2C3CC(OCc4ccccc4)(OCc4ccccc4)C(O3)C21 (stereo unspecified) | 38.4 µM | 36.5 µM | 45.8 µM | 60.4 µM | 39.3 µM | 35.9 µM | 55.4 µM | 19 µM |  |  |  |  |  |  |  |  |  |  |  |  |
| CN(C)C(=O)c1cc2cnc(Nc3ccc(-c4csc5c(=O)cc(N6CCOCC6)oc45)cc3)nc2n1C1CCCC1 | 1.32 µM | 0.388 µM | 18.3 µM | 1.18 µM | 14.6 µM |  | 0.682 µM | 0.698 µM | 0.166 µM | 0.163 µM | 0.205 µM | 0.171 µM | > 100 µM | 0.209 µM | 0.21 µM | 0.228 µM | 0.0414 µM | 0.0877 µM |  |  |
| CCOC(=O)/C=C/C(C(=O)/C=C/c1ccc(O)c(OC)c1)=C(O)\C=C\c1ccc(O)c(OC)c1 | 12.8 µM |  | > 100 µM | 54.4 µM | 8.16 µM | 12.3 µM | > 100 µM |  | 3.14 µM |  | 3.62 µM | 8.07 µM | > 100 µM | 20 µM | 1.88 µM | 3.39 µM | 3.96 µM |  | 2 µM | 8.55 µM |
| CN1CCN(Cc2ccc(NC(=O)c3ccc(C#Cc4c(N)ncc5ccc(F)cc45)cc3)cc2C(F)(F)F)CC1 | 1.64 µM | 1.6 µM |  | 2.02 µM | 1.78 µM | 3.68 µM | 1.52 µM | 2.62 µM | 0.901 µM | 0.835 µM |  | 0.878 µM | 1.85 µM | 1.06 µM | 0.913 µM | 1.4 µM | 0.733 µM | 0.935 µM | 1.14 µM | 2.04 µM |
| S=C1Nc2ccc(Cl)cc2C2(c3ccccc3)N3CCN=C3NN12 (stereo unspecified) | > 100 µM |  | 70.7 µM | 74.7 µM | > 100 µM | 55.2 µM | > 100 µM | 53 µM | 26.3 µM |  | 26.9 µM | 30.8 µM | 99 µM | 23.7 µM | 35.3 µM | 25.7 µM | 52.1 µM | 22.7 µM | 32.5 µM | > 100 µM |
| Cc1ccc2c(c1)NC(=O)CC(c1ccccc1)=N2 |  |  |  | > 100 µM | > 100 µM | > 100 µM | > 100 µM |  |  |  |  |  | > 100 µM |  |  |  |  |  |  | 79.9 µM |
| COc1ccccc1C#Cc1ccccc1C#CCCCCCC#Cc1ccccc1C#Cc1ccccc1OC | > 100 µM | > 100 µM | > 100 µM | > 100 µM | > 100 µM | > 100 µM | > 100 µM |  | 80.1 µM | 26.6 µM | 65.4 µM | 6.75 µM | > 100 µM | > 100 µM | > 100 µM | 93.5 µM | 75 µM |  | 60.3 µM | > 100 µM |
